From patent US20250144067A1, “PERSONALIZED STARVATION THERAPY FOR CANCER” (Faeth Therapeutics, Inc., priority 2021, published 2025)
Structures can show the parent of a compound that is named as a salt. Where two headings read alike, the source gives them in different places.

Tests used:
[1] = tested on: NCI-H292 lung cancer cells; experiment: FDA drug screening, complete media vs cholesterol-free media without statin (TABLE 1); type: cell-based, human
[2] = tested on: NCI-H292 lung cancer cells; experiment: FDA drug screening, complete media vs cholesterol-free media with simvastatin (TABLE 2); type: cell-based, human
[3] = Complete minus Cholesterol-free, […]
[4] = NCI-H292 cells, cholesterol-free media without statin
[5] = NCI-H292 cells, FDA drug library screen, cholesterol-free media with simvastatin 0.04 μM
[6] = NCI-H292 cells, FDA drug library screen, complete media
[7] = complete media vs cholesterol-free media + simvastatin (0.04 μM), […]
[8] = Complete minus Cholesterol-free, >0 enhanced anti-cancer activity, about 0 neutral, <0 antagonist
[9] = NCI-H292 cells, cholesterol-free media without statin, FDA drug library screen
[10] = NCI-H292 cells, complete media, FDA drug library screen
[11] = NCI-H292 cells, cholesterol-free media with simvastatin 0.04 μM, cell growth value in FDA drug screen
[12] = NCI-H292 cells, complete media, cell growth value in FDA drug screen
[13] = complete media minus cholesterol-free media + simvastatin, >0 enhanced anti-cancer activity, about 0 neutral, <0 antagonist
[14] = Complete minus Cholesterol-free, greater than 0 enhanced anti-cancer activity, about 0 neutral, below 0 antagonists
[15] = NCI-H292 cells in cholesterol-free media without statin
[16] = NCI-H292 cells in complete media
[17] = complete media vs cholesterol-free media + simvastatin (0.04 μM), >0 enhanced anti-cancer activity, about 0 neutral, <0 antagonist
[18] = NCI-H292 cells, FDA library drug in cholesterol-free media with simvastatin 0.04 μM
[19] = NCI-H292 cells, FDA library drug in complete media
[20] = Complete minus Cholesterol-free, greater than 0 enhanced anti-cancer activity, about 0 neutral, below 0 antagonist
[21] = NCI-H292 cells, FDA drug library screen, cholesterol-free media without statin
[22] = complete vs cholesterol-free media, >0 enhanced anti-cancer activity, about 0 neutral, <0 antagonist
[23] = complete media minus cholesterol-free media + simvastatin, […]

Baricitinib (phosphate)
Difference [1, 3]: −0.20
Cholesterol-free [1, 4]: 0.7762
Complete ([1]; NCI-H292 cells, complete media): 0.5811
Cholesterol-free media + simvastatin (0.04 μM) [2, 5]: 0.6632
Complete Media [2, 6]: 0.5619
Difference [2, 7]: −0.10

CC1(C)O[C@@H]2C[C@H]3[C@@H]4CCC5=CC(=O)C=C[C@]5(C)[C@H]4[C@@H](O)C[C@]3(C)[C@]2(C(=O)CO)O1 [Desonide]
Difference [1, 8]: −0.07
Cholesterol-free [1, 9]: 0.6524
Complete [1, 10]: 0.5811
Cholesterol-free media + simvastatin (0.04 μM) [2, 11]: 0.6303
Complete Media [2, 12]: 0.7658
Difference [2, 13]: 0.14

N#C[C@@H]1CCCN1C(=O)CNC12CC3CC(CC(O)(C3)C1)C2 [Vildagliptin]
Difference [1, 14]: −0.50
Cholesterol-free [1, 15]: 1.213
Complete [1, 16]: 0.7138
Cholesterol-free media + simvastatin (0.04 μM) [2, 5]: 1.588
Complete Media [2, 6]: 1.466
Difference [2, 17]: −0.12

CCCCOc1cc(C(=O)NCCN(CC)CC)c2ccccc2n1 [Dibucaine (hydrochloride)]
Difference [1, 14]: −0.71
Cholesterol-free [1, 15]: 1.433
Complete [1, 16]: 0.7196
Cholesterol-free media + simvastatin (0.04 μM) [2, 5]: 0.7966
Complete Media [2, 6]: 1.391
Difference [2, 13]: 0.59

O=C(COc1ccc(Cl)cc1)N1CCN(Cc2ccc3c(c2)OCO3)CC1 [Fipexide]
Difference [1, 8]: −0.02
Cholesterol-free [1, 9]: 1.201
Complete [1, 10]: 1.177
Cholesterol-free media + simvastatin (0.04 μM) [2, 18]: 1.655
Complete Media [2, 19]: 1.225
Difference [2, 17]: −0.43

CC(=O)c1ccc(S(=O)(=O)NC(=O)NC2CCCCC2)cc1 [Acetohexamide]
Difference [1, 20]: −0.13
Cholesterol-free [1, 21]: 1.163
Complete [1, 6]: 1.03
Cholesterol-free media + simvastatin (0.04 μM) [2, 5]: 1.214
Complete Media [2, 6]: 1.116
Difference [2, 17]: −0.10

OC[C@H]1O[C@@H](n2cnc3c2NC=NC[C@H]3O)C[C@@H]1O [Pentostatin]
Cholesterol-free [1]: 1.242
Complete [1]: 0.8025
Difference [1]: −0.44
Cholesterol-free media + simvastatin (0.04 μM) [2]: 1.49
Complete Media [2]: 1.245
Difference [2]: −0.25

CN(C)C(=O)N[C@H]1CC[C@H](CCN2CCN(c3cccc(Cl)c3Cl)CC2)CC1 [Cariprazine (hydrochloride)]
Difference [1, 20]: −0.14
Cholesterol-free [1, 21]: 1.158
Complete [1, 6]: 1.021
Cholesterol-free media + simvastatin (0.04 μM) [2, 5]: 1.127
Complete Media [2, 6]: 1.452
Difference [2, 13]: 0.32

CO[C@H]1C[C@@H]2CC[C@@H](C)[C@@](O)(O2)C(=O)C(=O)N2CCCC[C@H]2C(=O)O[C@H]([C@H](C)C[C@@H]2CC[C@@H](O)[C@H](OC)C2)CC(=O)[C@H](C)/C=C(\C)[C@@H](O)[C@@H](OC)C(=O)[C@H](C)C[C@H](C)/C=C/C=C/C=C/1C [Rapamycin]
Difference [1, 20]: −0.13
Cholesterol-free [1, 21]: 0.3515
Complete [1, 6]: 0.2187
Cholesterol-free media + simvastatin (0.04 μM) [2, 18]: 1.159
Complete Media [2, 19]: 0.8704
Difference [2, 17]: −0.29

CCc1nn(CCCN2CCN(c3cccc(Cl)c3)CC2)c(=O)n1CCOc1ccccc1 [Nefazodone (hydrochloride)]
Cholesterol-free [1, 9]: 0.8256
Complete [1, 10]: 1.655
Difference [1, 22]: 0.83
Cholesterol-free media + simvastatin (0.04 μM) [2, 18]: 1.025
Complete Media [2, 19]: 0.2752
Difference [2, 17]: −0.75

COc1cc(C(=O)NC2CCCNC2)cc(OC)c1OC (stereo not shown) [Troxipide]
Difference [1, 14]: −0.70
Cholesterol-free [1, 15]: 1.812
Complete [1, 16]: 1.111
Cholesterol-free media + simvastatin (0.04 μM) [2, 18]: 1.578
Complete Media [2, 19]: 1.185
Difference [2, 17]: −0.39

CC1(C)S[C@@H]2[C@H](NC(=O)[C@H](C(=O)[O-])c3ccsc3)C(=O)N2[C@H]1C(=O)[O-].[Na+].[Na+] [Ticarcillin (disodium)]
Cholesterol-free [1, 9]: 0.7001
Complete [1, 10]: 1.43
Difference [1, 22]: 0.73
Cholesterol-free media + simvastatin (0.04 μM) [2, 5]: 1.294
Complete Media [2, 6]: 1.207
Difference [2, 17]: −0.09

Amlodipine (besylate)
Cholesterol-free [1]: 1.359
Difference [1]: −0.33
Cholesterol-free media + simvastatin (0.04 μM) [2]: 1.186
Difference [2]: −0.19

COc1ccc(-c2cc(C(F)F)nn2-c2ccc(S(N)(=O)=O)cc2)cc1F [Deracoxib]
Difference [1, 14]: −0.50
Cholesterol-free [1, 15]: 1.682
Complete [1, 16]: 1.181
Cholesterol-free media + simvastatin (0.04 μM) [2, 5]: 1.651
Complete Media [2, 6]: 1.821
Difference [2, 13]: 0.17

c1ccc2c(c1)Nc1ccccc1S2 [Phenothiazine]
Difference [1, 3]: −0.11
Cholesterol-free [1, 21]: 1.108
Complete [1, 6]: 1.002
Cholesterol-free media + simvastatin (0.04 μM) ([2]; NCI-H292 cells, cholesterol-free media with simvastatin 0.04 μM, […]): 1.18
Complete Media ([2]; NCI-H292 cells, complete media, […]): 1.261
Difference [2, 23]: 0.08

CO[C@@H]1[C@H](OC(=O)/C=C/C=C/C=C/C=C/C(=O)O)CC[C@]2(CO2)[C@H]1[C@@]1(C)O[C@@H]1CC=C(C)C [Fumagillin]
Difference [1, 3]: −0.08
Cholesterol-free [1, 21]: 0.6031
Complete [1, 6]: 0.519
Cholesterol-free media + simvastatin (0.04 μM) [2, 18]: 1.348
Complete Media [2, 19]: 1.08
Difference [2, 7]: −0.27

CC(C)[N+](C)(CCOC(=O)C1c2ccccc2Oc2ccccc21)C(C)C.[Br-] [Propantheline (bromide)]
Difference [1, 8]: −0.02
Cholesterol-free [1, 9]: 1.311
Complete [1, 10]: 1.294
Cholesterol-free media + simvastatin (0.04 μM) [2, 11]: 1.413
Complete Media [2, 12]: 1.449
Difference [2, 13]: 0.04

O=NN(CCCl)C(=O)NC1CCCCC1 [Lomustine]
Difference [1, 3]: −0.14
Cholesterol-free [1, 21]: 1.107
Complete [1, 6]: 0.965
Cholesterol-free media + simvastatin (0.04 μM) ([2]; NCI-H292 cells, cholesterol-free media with simvastatin 0.04 μM, FDA drug library screen (TABLE 2)): 0.7579
Complete Media ([2]; NCI-H292 cells, complete media, FDA drug library screen (TABLE 2)): 0.7602
Difference ([2]; complete media minus cholesterol-free media + simvastatin (0.04 μM), […]): 0.00

C[N+]1(CC2CC2)[C@@H]2C[C@@H](OC(=O)[C@H](CO)c3ccccc3)C[C@H]1[C@@H]1O[C@@H]12.[Br-] (stereo partly shown) [Cimetropium (Bromide)]
Cholesterol-free [1]: 0.8786
Complete [1]: 0.8182
Difference [1]: −0.06
Cholesterol-free media + simvastatin (0.04 μM) [2]: 1.704
Complete Media [2]: 1.429
Difference [2]: −0.28

CCOC(=O)c1cncn1[C@H](C)c1ccccc1 [Etomidate]
Cholesterol-free [1, 4]: 1.122
Complete ([1]; NCI-H292 cells, complete media): 0.7993
Difference ([1]; complete vs cholesterol-free media, […]): −0.32
Cholesterol-free media + simvastatin (0.04 μM) [2, 5]: 0.9001
Complete Media [2, 6]: 1.134
Difference [2, 23]: 0.23

CCC(C)n1ncn(-c2ccc(N3CCN(c4ccc(OCC5COC(Cn6cncn6)(c6ccc(Cl)cc6Cl)O5)cc4)CC3)cc2)c1=O (stereo not shown) [Itraconazole]
Cholesterol-free [1, 9]: 0.7502
Complete [1, 10]: 1.257
Difference [1, 22]: 0.51
Cholesterol-free media + simvastatin (0.04 μM) [2, 5]: 1.121
Complete Media [2, 6]: 0.9797
Difference [2, 17]: −0.14

CCCCCCOC(=O)CCC(=O)CN [Hexaminolevulinate (hydrochloride)]
Difference [1, 8]: 0.00
Cholesterol-free [1, 9]: 0.7384
Complete [1, 10]: 0.7376
Cholesterol-free media + simvastatin (0.04 μM) ([2]; NCI-H292 cells, drug in cholesterol-free media with simvastatin 0.04 μM): 1.074
Complete Media ([2]; NCI-H292 cells, drug in complete media): 0.8971
Difference [2, 17]: −0.18

N=C(N)c1ccc(OCCCCCOc2ccc(C(=N)N)cc2)cc1.O=S(=O)(O)CCO.O=S(=O)(O)CCO [Pentamidine (isethionate)]
Difference [1, 20]: −0.17
Cholesterol-free [1, 21]: 0.6432
Complete [1, 6]: 0.4688
Cholesterol-free media + simvastatin (0.04 μM) [2, 11]: 0.3285
Complete Media [2, 12]: 0.4548
Difference [2, 13]: 0.13
